# Measurements published in patent US11596623B2, “Methods for treating virus infection or proliferation” (HOWARD UNIVERSITY, priority 2018, dated 2023).
# Tests used:
# HSV-1 ICP0 = test: Real-time RT-PCR of HSV-1 ICP0 transcript in HEp-2 cells; format: cell-based; settings: 12 and 24 hpi, versus DMSO
# Description: The total transcript levels were quantified using actin expression as an internal control. The cDNA obtained immediately after the virus and drug transfection(s) was set as a baseline value. The normalized expression values were transformed to the log 10 value. The data plot represents mean t standard error calculated from three replicates.
# Following instructions of the manufacturers, total RNA was isolated using Tri Reagent® (Ambion, Inc., Austin, Tex.). To quantitatively examine the mRNA level of HSV-1 ICP0 from the infected cells, real-time RT-PCR was undertaken using the QuantiTect SYBR Green RT-PCR kit (QIAGEN, Valencia, Calif.). […] Fluorescence (captured at 80° C.) was determined to be absent from the signal generated by primer dimers. Data were collected and recorded by the BIORAD CFX Manager software. The relative quantity of the ICP0 transcripts at the indicated time points was normalized to the relative quantity of the reference gene actin at the same time points and then the log10 copy number of the normalized RNA transcripts were calculated and presented on a bar chart. A melting temperature curve analysis was obtained by measuring (after the amplification cycles) the fluorescence during a period of warming from 60° C. to 95° C. […]
# RACK1 = biological target: T1, RACK1 (Homo sapiens, UniProt P63244); test: RACK1 protein western blot in HSV-1 infected HEp-2 cells; format: cell-based; settings: pre-treated 24 hours at 100 μM; 24 h after HSV-1 infection
# T1 construct: endogenous in cells; host or cells: HEp-2 cells (human laryngeal carcinoma line), virus-infected
# Method: The virus used in this diagram is an HSV-1 F strain expressing luciferase (R8411 mutant) under the control of the ICP27 promoter and was a gift from Prof. Bernard Roizman (University of Chicago). HEp-2 cells were grown to 80-90% confluency in Dulbecco's Modified Eagle's medium (DMEM) supplemented with 10% fetal calf serum (PCS) and 1% penicillin-streptomycin (PS) and fungicide. The HSV-1 virus and the indicated concentration of compound(s) were added and incubated for 24 h (A of FIG. 13 and B of FIG. 13) and for 48 h in panel C samples. The luciferase signals were imaged and quantified in a Perkin Elmer IVIS Spectrum Imaging system. […] Three replicates from two separate experiments were combined to generate the average and the standard error bar. […] The compound(s) inhibit Y248 phosphorylation of RACK1 protein.
# Proteins were separated by SDS-PAGE (25 μg loaded in each lane), transferred to nitrocellulose membranes (Amersham Inc., Piscataway, N.J., USA), and blocked with 5% nonfat milk for 60 min at room temperature. Membranes were incubated overnight at 4° C. with primary antibody, followed by incubation with a horseradish peroxidase-coupled secondary antibody and detection with enhanced chemiluminescence (Pierce, Rockford, Ill., USA), according to standard methods. […]
structure (smiles),measurement,setting,value
Nn1c(S)nnc1-c1ccc(F)cc1 [SD-29],ICP0 mRNA level,HSV-1 ICP0,essentially showed the same level of ICP0 mRNA
same,production of RACK1,RACK1,reduced the production of RACK1
